What was measured:
[1] = system: hyperglycemic mice; details: cited from earlier work
[2] = system: mice; details: Moy et al. (2017); cited from earlier work
[3] = biological target: T1, Candida Pkc1 (Candida albicans, UniProt P43057); details: cited from earlier work
T1 sequence (P43057 1-1097): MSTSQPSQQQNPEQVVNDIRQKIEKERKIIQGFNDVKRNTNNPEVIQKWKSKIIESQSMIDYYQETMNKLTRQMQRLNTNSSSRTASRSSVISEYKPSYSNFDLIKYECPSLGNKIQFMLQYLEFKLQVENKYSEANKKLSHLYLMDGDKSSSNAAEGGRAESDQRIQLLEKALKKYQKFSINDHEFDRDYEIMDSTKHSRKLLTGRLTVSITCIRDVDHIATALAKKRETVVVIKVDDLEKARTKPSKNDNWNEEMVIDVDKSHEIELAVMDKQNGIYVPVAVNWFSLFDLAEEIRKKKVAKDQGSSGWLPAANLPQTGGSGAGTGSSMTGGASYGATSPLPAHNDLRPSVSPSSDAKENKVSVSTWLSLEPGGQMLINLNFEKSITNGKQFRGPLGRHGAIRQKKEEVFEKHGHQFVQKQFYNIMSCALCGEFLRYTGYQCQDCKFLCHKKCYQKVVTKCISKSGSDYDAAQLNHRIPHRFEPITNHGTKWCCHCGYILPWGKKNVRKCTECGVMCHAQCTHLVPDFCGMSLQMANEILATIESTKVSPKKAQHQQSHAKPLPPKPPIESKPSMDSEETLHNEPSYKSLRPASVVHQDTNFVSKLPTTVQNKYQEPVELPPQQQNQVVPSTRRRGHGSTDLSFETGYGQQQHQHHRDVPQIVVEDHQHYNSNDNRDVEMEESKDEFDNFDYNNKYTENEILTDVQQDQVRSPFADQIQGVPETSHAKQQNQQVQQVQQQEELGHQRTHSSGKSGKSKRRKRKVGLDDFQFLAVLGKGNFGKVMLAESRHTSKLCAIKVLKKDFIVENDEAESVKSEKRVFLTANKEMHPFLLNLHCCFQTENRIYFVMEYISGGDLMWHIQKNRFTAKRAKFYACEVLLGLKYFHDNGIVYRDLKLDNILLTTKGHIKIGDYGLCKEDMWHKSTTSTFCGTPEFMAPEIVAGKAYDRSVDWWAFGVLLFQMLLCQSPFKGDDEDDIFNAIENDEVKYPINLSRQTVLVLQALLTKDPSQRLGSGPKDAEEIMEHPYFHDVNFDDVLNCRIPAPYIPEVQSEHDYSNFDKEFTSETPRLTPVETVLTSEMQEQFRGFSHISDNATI

[4] = in vivo; cited from earlier work
[5] = local administration; cited from earlier work
[6] = system: female ICR mice; assay: dural IL-6 facial hypersensitivity and hyperalgesic priming model (von Frey facial withdrawal threshold); assay type: in vivo; details: for hyperalgesic priming: response to second dural stimulus SIF pH 7.0: 25 μg dural co-injection with 0.1 ng IL-6, pH 7.0 given after return to baseline; for acute facial mechanical hypersensitivity after dural IL-6: 25 μg dural co-injection with 0.1 ng IL-6, versus IL-6 alone
Description: Mice received a dural injection of interleukin-6 in the absence or presence of the protein synthesis inhibitor anisomycin or the translation initiation inhibitor 4EGI-1 and were tested for facial hypersensitivity. Upon returning to baseline, mice were given a second, non-noxious dural injection of pH 7.0 to test for priming. Additionally, eIF4ES209A mice lacking phosphorylation of mRNA cap-binding protein eIF4E received dural interleukin-6 or were subjected to repeated restraint stress and then tested for facial hypersensitivity. After returning to baseline, mice were given either dural pH 7.0 or a systemic sub-threshold dose of the nitric oxide donor sodium nitroprusside and tested for priming.
First female mice were administered either 0.1 ng of IL-6, 25 μg of anisomycin (a general protein synthesis inhibitor), or a co-injection of both onto the dura to induce mechanical facial allodynia that persisted for more than 24 h and resolved by 72 h (FIG. 2). Upon returning to baseline, a second stimulus, SIF (pH 7.0), was administered onto the dura to reveal the presence of hyperalgesic priming from the initial IL-6 stimulus. […] This hypersensitivity persisted for more than 5 h.
Similar to the experiments used to generate FIG. 2, 0.1 ng of IL-6, 25 μg of 4EGI-1, a compound that mimics the activity of 4E-BP1, or a co-injection of both was administered onto the dura of female mice (FIG. 3). The resulting mechanical allodynia induced by IL-6 persisted for more than 24 h and resolved after 72 h. Upon returning to baseline, mice were exposed to a dural injection of low pH. […] Thus, assembly of the eIF4F complex locally in the dura appears to be critical to the development of long-lasting mechanical hypersensitivity following repeated stress.
Human recombinant IL-6 protein (R&D Systems) stock solution (100 mg/mL) was prepared in sterile 0.1% BSA and diluted to 1 ng/mL in synthetic interstitial fluid (SIF) consisting of 135 mM NaCl, 5 mM KCl, 10 mM HEPES, 2 mM CaCl2, 10 mM glucose, 1 mM MgCl2 (pH 7.4, 310 mOsm). Anisomycin (Tocris) stock solution (135 mg/mL) and 4EGI-1 (Enzo) stock solution (20 mg/mL) were both prepared in sterile 0.1% BSA and diluted to 5 mg/mL in SIF. Sodium nitroprusside (SNP) (Sigma-Aldrich) was prepared in sterile phosphate buffered saline (PBS) at the time of use and was kept away from light. For dural injections, mice received […] injections of either IL-6, anisomycin, 4EGI-1, SIF, or a combination of IL-6 and anisomycin or IL-6 and 4EGI-1 for acute testing. For testing the ability of mice to prime to the initial stimulus in these dural injection experiments, […] of SIF pH 7.0 were administered onto the dura. […]

[7] = system: hindpaw; details: local co-injection with IL-6 into the hindpaw, previous study; cited from earlier work
[8] = system: DLBCL cell lines; details: multiple DLBCL cell lines; cited from earlier work
[9] = system: TNFa, IL-6, IL-10 and CXCL10 production in TMD8, OCI-Ly3 and HBL1 DLBCL cell lines; details: cited from earlier work
[10] = system: models which harbor activating MyD88 mutations; details: in vivo, multiple models harboring activating MyD88 mutations; cited from earlier work
[11] = system: eIF4E phosphorylation at serine 209; details: in vitro, tumor cell lines, dose-dependent; read-out: IC50 for reduction of eIF4E phosphorylation at serine 209; cited from earlier work
[12] = system: TNFa mRNA; details: cited from earlier work
[13] = system: Jurkat cells; details: cited from earlier work
[14] = system: A549 cells; details: cited from earlier work

In the case of CC(=O)C1=C(O)C=C2Oc3c(C(N)=O)c(O)cc(O)c3[C@]2(C)C1=O [Cercosporamide], the plasma glucose [1] is listed as “lowering of plasma glucose”, the “cold hypersensitivity induced by peripheral nerve injury” value [2] is listed as “reduced” and the IC50 [3] is listed as 25 nM. For the same compound, the oral bioavailability [4] was “orally bioavailable”.
For COc1ccc(C[C@H]2NC[C@H](O)[C@H]2OC(C)=O)cc1 [anisomycin], the “mechanical hypersensitivity and injury-induced changes in nociceptor excitability” value [5] is given as “reduces”, the “hyperalgesic priming: response to second dural stimulus SIF pH 7.0” value [6] is given as “did not respond to the low pH” and the “acute facial mechanical hypersensitivity after dural IL-6” value [6] is given as “only minor differences”. For the same compound, the “acute mechanical hypersensitivity after IL-6 into the hindpaw” value [7] was “prevented”.
In the case of Cc1cc(Nc2cc(N)ncn2)c(=O)n2c1C(=O)NC21CCCCC1 [eFT508], the anti-proliferative activity [8] is listed as “anti-proliferative activity”, the “production of pro-inflammatory cytokines including TNFa, IL-6, IL-10 and CXCL10” value [9] is listed as “dose-dependent decreases” and the anti-tumor activity [10] is listed as “significant anti-tumor activity”. For the same compound, the IC50 [11] was 2 to 16 nM, the “decrease in TNFa mRNA half-life” value [12] was 2 fold and the oral bioavailability [4] was “orally bioavailable”.
For O=C(O)C(Cc1ccccc1[N+](=O)[O-])=NNc1nc(-c2ccc(Cl)c(Cl)c2)cs1 [4EGI-1], the “activity against Jurkat cells” value [13] is listed as “exhibits activity”, the “mechanical hypersensitivity and injury-induced changes in nociceptor excitability” value [5] is listed as “reduces” and the “hyperalgesic priming: response to second dural stimulus SIF pH 7.0” value [6] is listed as “robustly blocked”. The “acute facial mechanical hypersensitivity after dural IL-6” value [6] was “partially attenuated” and the “activity against A549 cells” value [14] was “exhibits activity”.
